Reference: patent US20130323283A1, “COMPOSITIONS AND METHODS FOR TREATING FOXP3+ TREG RELATED DISEASES” (THE CHILDREN'S HOSPITAL OF PHILADELPHIA, priority 2010, published 2013)

What was measured:
[1] = test system: Tregs; assay: in vitro murine Treg suppression assay (CFSE-labeled Teff proliferation); format: cell-based; settings: for % proliferating cells: 5 μM, 72 hours
Protocol: Med. (2007) 13:1299-307, the contents of which are incorporated by their entireties. In these assays, effector T cells (Teffs) were labeled with carboxyfluorescein diacetate succinimidyl ester (CFSE), and stimulated by CD3 mAb plus irradiated antigen presenting cells (APCs). […] The percentage of proliferating CFSE-labeled Teffs in each mixture was assessed by flow cytometry after 72 hours as shown in Table 1.

[2] = test system: Treg and Teff cells; assay: Treg and Teff gene expression in vitro by qPCR; format: cell-based; settings: 5 μM, 24 hours, CD3/CD28 mAbs plus IL-2
Protocol: Gene expression Foxp3, CTLA-4, GITR and TGF-β in the activated Treg and Teff cells was determined by qPCR (mean±SD, n=3/grp) and normalized to 18S.

[3] = test system: Teffs and Tregs; assay: CD4+ Foxp3+ proportion and MFI in Teffs and Tregs by flow cytometry; format: cell-based; settings: 6 hours
Protocol: Teffs and Tregs were isolated, and treated with 5, 10, or 20 μM p300i or DMSO for 6 hours. Flow cytometry was used to determine the CD4+ Foxp3+ proportion in Teffs or Tregs (Table 2) and the mean fluorescent intensity (MFI) of CD4+ Foxp3+ cells in Teffs or Tregs (Table 3) before or after being treated with p300i or DMSO.

[4] = test system: B6 mice; assay: T cell proportions in lymph nodes and spleen of treated mice; format: in vivo; settings: for CD4 proportion / CD8 proportion / CD62L CD44 proportion / Foxp3+ CD4 proportion: 0.9 mg/kg/day via Alzet pump for 7 days
Protocol: (§1) Treg and Teff cells were purified using magnetic beads from DMSO- or p300i-treated mice.
The proportions of CD4, CD8, Foxp3+ CD4, or CD62L CD44 (markers of memory vs. naive T cells) cells in lymph nodes (LN) and spleen (SP) of DMSO- and C646-treated mice were determined as shown in Table 4.

[5] = test system: Treg and Teff cells; assay: gene expression by Treg and Teff cells from treated mice (qPCR); format: in vivo; settings: cells from mice given 0.9 mg/kg/day for 7 days
Protocol: as §1
Gene expression by Treg and Teff cells from DSMO- or C646-treated mice (four mice/group) was analyzed by qPCR.

[6] = test system: Tregs and Teff cells; assay: Treg suppression assays with cells purified from treated mice; format: in vivo; settings: Treg:Teff 2:1 to 0:1
Source text: as §1

[7] = test system: CFSE-labeled CD4 and CD8 cells; assay: first parent-to-F1 assay (C57BL/6->DBA/B6), alloantigen-induced T cell proliferation in vivo; parameters: species or system mice; settings: 0.8 mg/kg/d continuous via Alzet pump; 3 day assay
Source text: In the first parent-to-F1 assay (C57BL/6->DBA/B6) (Tao et al., J. Immunol. (2005) 175:5774-82; Tao et al., J. Immunol. (2008) 180:6649-55; the contents of both of which are incorporated herein in their entireties), activation and proliferation of adoptively transferred CFSE-labeled CD4 and CD8 cells was monitored by flow cytometry in a 3 day assay. […] The percentages of CFSE-labeled CD4 proliferating or dividing cells from DSMO- and C646-treated mice were 65% and 73%, respectively. The percentages of CFSE-labeled CD8 proliferating or dividing cells from DSMO- and C646-treated mice were 93% and 95%, respectively.

[8] = test system: CFSE-labeled T cells; assay: second parent-to-F1 assay (B6 T cells into B6D2F1 mice); format: in vivo; settings: 0.9 mg/kg/d for 3 days by Alzet pumps
Source text: The percentages of CFSE-labeled CD4 proliferating cells from DSMO- and C646-treated mice were 94.5% and 95.0%, respectively. The percentages of CFSE-labeled CD8 proliferating or dividing cells from DSMO- and C646-treated mice were 78.5% and 81.6%, respectively. Donor CD4 and CD8 cells (H-2d negative) from both groups had similar alloantigen-induced activation and proliferation (p>0.05).

[9] = test system: cardiac allografts; assay: cardiac allograft model (BALB/c hearts into B6 RAG-/- recipients with adoptive transfer); format: in vivo, mice
Source text: The effects of several HAT inhibitors (HATi) in a cardiac allograph model were studied in three experiments. This model involved vascularized cardiac allografts from BALB/c donors transplanted into immunodeficient C57BL/6 RAG−/− (B6 RAG−/−) recipients. The recipients were adoptively transferred with 1×10^6 purified C57BL/6 Teff cells (CD4+CD25−) alone or in combination with 0.5×10^6 purified Treg cells (CD4+CD25+). The cardiac allograft survival rates of the allograft recipients were monitored over a period of 120 days post-transplant.
In the first experiment, the allograft recipients were adoptively transferred with 1×10^6 Teff cells and 0.5×10^6 purified Tregs (CD4+CD25+), and treated with DMSO (control) or a HAT inhibitor via Alzet pump. Four HAT inhibitors were tested. […] One was a PCAF/GCN5 inhibitor, Lys-20-CoA-Tat. […] Rejection was defined as cessation of heartbeat.
The p300i was delivered to the allograft recipients at 0.9 mg/kg/d for 14 d using Alzet pumps.
In the third experiment, B6/RAG−/− mice (n=4/grp) were engrafted with fully MHC-mismatched BALB/c cardiac grafts and adoptively transferred with WT B6 Teff cells (1×10^6) alone or plus Tregs (0.5×10^6). […] Use of p300−/− Tregs was also unable to suppress Teff cells and prolong allograft survival in this adoptive transfer model.

[10] = test system: TC1 lung cancer cells; assay: TC1 lung cancer tumor growth in WT B6 mice; format: in vivo
Protocol: In the second experiment, p300 inhibition was achieved by using a p300 inhibitor. TC1 lung cancer cells were injected in the flanks of WT B6 mice. […] Tumor volume was monitored in the mice on days 6, 10, 12, 15 and 19 post-tumor injection (FIG. 5B). […] DMSO- and C646-treated mice having tumors were obtained as described in Example 9. […] The growth of tumors in the mice was monitored by tumor volume and tumor weight (FIG. 6B).

[11] = test system: TC1 lung cancer cells; assay: TC1 lung cancer tumor growth in immunodeficient RAG-/- mice; format: in vivo
Protocol: TC1 lung cancer cells were injected in the flanks of RAG−/− mice. […] Tumors were harvested from the mice 17 days post-tumor injection. Tumor volume was monitored on days 0, 5, 10, 13 and 17 post-tumor injection. […] Tumors were exposed to C646 in RAG−/− mice. […] No effects on acetylation of certain p300-independent targets in the tumor extracts was observed (e.g. acetylation of alpha-tubulin was unimpaired).

[12] = compared with DMSO-treated mice, p<0.005
[13] = qPCR, tumors from treated mice vs DMSO

## CC1=NN(c2ccc(C(=O)O)cc2)C(=O)/C1=C\c1ccc(-c2cc(C)c(C)cc2[N+](=O)[O-])o1 [C646]
[1]; HATi 5 μM
  suppressive actions of Tregs: largely abrogated the suppressive actions of Tregs
[1]; Treg:Teff 0:1
  % proliferating cells: 88%
[1]; Treg:Teff 1:1
  % proliferating cells: 66%
[1]; Treg:Teff 1:2
  % proliferating cells: 70%
[1]; Treg:Teff 1:4
  % proliferating cells: 78%
[1]; Treg:Teff 1:8
  % proliferating cells: 85%
[2]
  Treg expression of GITR gene: downregulated
[2]; statistical significance
  Treg expression of CTLA-4 gene: downregulated
  Treg expression of Foxp3 gene: downregulated
  Treg expression of TGF-β gene: downregulated
[3]; Teff, 5 μM
  mean fluorescent intensity (MFI) of CD4+ Foxp3+ cells: 121
[3]; Teff, 10 μM
  mean fluorescent intensity (MFI) of CD4+ Foxp3+ cells: 108
[3]; Teff, 20 μM
  mean fluorescent intensity (MFI) of CD4+ Foxp3+ cells: 91
[3]; Teffs, 5 μM
  CD4+ Foxp3+ proportion: 2
[3]; Teffs, 10 μM
  CD4+ Foxp3+ proportion: 2
[3]; Teffs, 20 μM
  CD4+ Foxp3+ proportion: 1
[3]; Treg, 5 μM
  mean fluorescent intensity (MFI) of CD4+ Foxp3+ cells: 280
[3]; Treg, 10 μM
  mean fluorescent intensity (MFI) of CD4+ Foxp3+ cells: 253
[3]; Treg, 20 μM
  mean fluorescent intensity (MFI) of CD4+ Foxp3+ cells: 138
[3]; Tregs, 5 μM
  CD4+ Foxp3+ proportion: 71
[3]; Tregs, 10 μM
  CD4+ Foxp3+ proportion: 68
[3]; Tregs, 20 μM
  CD4+ Foxp3+ proportion: 49
[4]; LN and SP, compared to DMSO-treated mice, 0.9 mg/kg/day, 7 days
  effect on the proportions of the tested cells (CD4, CD8, Foxp3+ CD4, CD62L CD44): negligible effect
[4]; LN
  CD4 proportion: 35
  CD8 proportion: 34
  CD62L CD44 proportion: 6
  Foxp3+ CD4 proportion: 8
[4]; SP
  CD4 proportion: 18
  CD8 proportion: 12
  CD62L CD44 proportion: 12
  Foxp3+ CD4 proportion: 13
[5]; p<0.01
  expression of CTLA4 by Treg cells: significantly decreased
  expression of GITR by Treg cells: significantly decreased
  expression of IL-10 by Treg cells: significantly decreased
  expression of TGF-β by Treg cells: significantly decreased
[5]; p>0.05
  expression of CTLA4, GITR, IL-10 and TGF-β by Teff cells: unchanged
[6]; Tregs from C646-treated mice, p<0.05
  ability of Tregs to suppress proliferation of Teff cells from untreated mice: decreased
[6]; Tregs from untreated mice
  response of Teff cells from treated mice to suppression by control normal Tregs: responded normally
[7]
  alloantigen-induced T cell activation or proliferation (CFSE dilution) or production of cytokines such as IL-2 and IFN-γ: did not impair
  percentage of CFSE-labeled CD4 proliferating or dividing cells: 73%
  percentage of CFSE-labeled CD8 proliferating or dividing cells: 95%
[8]
  percentage of CFSE-labeled CD4 proliferating cells: 95.0%
  percentage of CFSE-labeled CD8 proliferating or dividing cells: 81.6%
[9]; first experiment: 1×10^6 Teff plus 0.5×10^6 Tregs, HAT inhibitor via Alzet pump, DMSO gave long-term survival
  cardiac allograft rejection (cessation of heartbeat): restored rejection
[9]; second experiment: Teff cells alone plus p300i 0.9 mg/kg/d for 14 d, Alzet pumps
  Teff cell responses in vivo (allograft rejection): does not suppress Teff cell responses in vivo
[9]; second experiment: WT B6 mice with normal B6 hearts
  graft function (isografts): does not directly affect graft function
[9]; third experiment: Teff plus Tregs, Alzet pumps for 14 days
  T cell-dependent graft rejection: restored T cell-dependent graft rejection
[10]; 0.9 mg/kg/day for about 14 days via Alzet pumps from day 6, days 6-19
  tumor growth (tumor volume): suppressed tumor growth
[10]; [12]
  tumor growth by volume: significantly reduced
  tumor growth by weight: significantly reduced
[10]; [13]
  intratumoral CD4 mRNA: significantly increased
  intratumoral CD8 mRNA: comparable
  intratumoral Foxp3 mRNA: significantly reduced
  intratumoral granzyme B mRNA: significantly increased
[10]; tumor-bearing treated mice
  IFN-γ production by purified CD8 (ELISPOT): increased
[11]; Alzet pumps from day 5, up to day 17
  tumor growth (tumor volume): did not impair tumor growth
[11]; compared to DMSO-treated mice
  acetylation of histone 3 in tumor extracts: Decreased acetylation of histone 3
[11]; p300-independent target
  acetylation of alpha-tubulin in tumor extracts: unimpaired
